The values that follow come from EPA's ToxValDB 9.5 (doi:10.2903/j.efsa.2017.4989).

One data set deals with Anas platyrhynchos. Particulars: acute; oral; unspecified; mortality.
Another data set has as its system Apis mellifera. Particulars: acute, duration: 48 hours, mortality.
The next data set concerns Daphnia magna. Particulars: chronic/long-term; duration: 21 days; reproduction.
Another data set has as its system Folsomia candida. Particulars: chronic/long-term; mortality.
The test system of another data set is Hypoaspis aculeifer. Particulars: chronic/long-term; mortality.
In a further data set the test system is Oncorhynchus mykiss. Particulars: for LC50: acute, duration: 96 hours, mortality.
A further data set has as its system Oryctolagus sp. Particulars: developmental; development.
The next data set has as its system Tagia sp. Particulars: chronic/long-term; growth.

Broadly, the NOAEL is the highest tested level that showed no adverse finding.

≈ marks a conversion by molar mass, not a printed value.

With `CO/N=C(/C(=O)OC)c1ccccc1CO/N=C(\C)c1cccc(C(F)(F)F)c1` [Trifloxystrobin], the LD50 in the data set with Anas platyrhynchos was greater than 2250 mg/kg-day; in the data set with Apis mellifera (dermal), greater than 100 µg/piece; in the data set on Apis mellifera (oral, unspecified), greater than 110 µg/piece; in the data set with Colinus virginianus (acute, oral, mortality) it was greater than 2000 mg/kg-day. Moreover, the NOEL in the data set with Colinus virginianus (chronic) was determined as 31 mg/kg-day. Moreover, the NOEC was determined as 0.00276 mg/L in the data set with Daphnia magna; 249 mg/kg with Folsomia candida; 249 mg/kg in the data set on Hypoaspis aculeifer; 0.0043 mg/L in the data set on Oncorhynchus mykiss (chronic/long-term, duration: 95 days, other); 3.5 mg/kg with Tagia sp.. In addition, the LC50 was 0.015 µg/mL (≈ 0.0367 µM) in the data set on Oncorhynchus mykiss and greater than 5000 mg/kg-day with Rattus norvegicus (acute, oral, mortality). The NOAEL in the data set with Oryctolagus sp. came out at 50 mg/kg-day; in the data set on Rattus norvegicus (chronic, body weight), 10 mg/kg-day; in the data set on Rattus norvegicus (reproduction developmental, body weight), 10 mg/kg-day.

In the case of `CO/N=C(/C(=O)O)c1ccccc1CO/N=C(\C(=O)O)c1cccc(C(F)(F)F)c1`, the NOEC in the data set on Folsomia candida amounted to 10 mg/kg; with Hypoaspis aculeifer, 100 mg/kg; in the data set with Tagia sp., 100 mg/kg. The compound also gave an LC50 in the data set with Oncorhynchus mykiss greater than 100 µg/mL. For the same compound, the LD50 with Rattus norvegicus (acute, oral, mortality) is greater than 2000 mg/kg-day. The compound also registered an NOAEL with Rattus norvegicus (short-term, duration: 28 days, clinical chemistry) of 150 mg/kg-day.

Consider `CO/N=C(/C(=O)O)c1ccccc1CO/N=C(/C(=O)O)c1cccc(C(F)(F)F)c1`, for which the NOEC in the data set with Folsomia candida and in the data set on Tagia sp. was 100 mg/kg in each case. Also, in the data set on Oncorhynchus mykiss, the LC50 was greater than 100 µg/mL. Also, in the data set with Rattus norvegicus (acute, oral, mortality), the LD50 was greater than 2000 mg/kg-day. This compound gave an NOAEL in the data set with Rattus norvegicus (short-term, duration: 28 days) greater than 1000 mg/kg-day.
